Test results taken from patent US20230077362A1 (CORTEVA AGRISCIENCE LLC, priority 2019, published 2023).
Read-outs that look alike come from different tables or passages of the source.

Tests used:
[1] = system: Cabbage Looper (Trichoplusia ni) ("CL"), second instar larvae; assay: Bioassay on cabbage looper (CL), 128-well diet tray assay; format: in vivo; details: for pest or weed control at 50 µg/cm2: Trichoplusia ni; for CL rating: Table ABC, species CL, C = not tested, D = no activity noticed
Summary of the method: (§1)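 Sealed trays, 25° C., 14:10 light:dark, 5–7 d. Per-well % mortality recorded, mean of eight wells reported.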

[2] = system: Beet Armyworm (Spodoptera exigua) ("BAW"), second instar larvae; assay: Bioassay on beet armyworm (BAW), 128-well diet tray assay; format: in vivo; details: for pest or weed control at 50 µg/cm2: Spodoptera exigua; for BAW rating: Table ABC, species BAW, C = not tested, D = no activity noticed
Summary of the method: as §1

[3] = read-out: CL (Biological Results, rating)
[4] = read-out: BAW (Biological Results, rating)

Row | SMILES | pest or weed control at 50 µg/cm2 ([1]; read-out: CL rating) | pest or weed control at 50 µg/cm2 ([2]; read-out: BAW rating) | pest or weed control at 50 µg/cm2 [1, 3] | pest or weed control at 50 µg/cm2 [2, 4] | further results
1 | Cc1ccc(OCCC(F)(F)F)c(N2C(=O)CS/C2=N\C(=O)Nc2ccc(-c3cn(-c4ccc(C(F)(F)F)cc4)cn3)cc2)c1 [Compound J517, (Z)-1-(3-(5-Methyl-2-(3,3,3-trifluoropropoxy)phenyl)-4-oxothiazolidin-2-ylidene)-3-(4-(1-(4-(trifluoromethyl)phenyl)-1H-imidazol-4-yl)phenyl)urea] | 50 to 100% | 50 to 100% | – | – | –
2 | Cc1ccc(C(C)C)c(N2C(=O)CS/C2=N\C(=O)Nc2ccc(-c3ncn(-c4cccc(C(F)(F)F)c4)n3)cc2F)c1 [Compound J140, (Z)-1-(2-Fluoro-4-(1-(3-(trifluoromethyl)phenyl)-1H-1,2,4-triazol-3-yl)phenyl)-3-(3-(2-isopropyl-5-methylphenyl)-4-oxothiazolidin-2-ylidene)urea] | – | – | 50 to 100% | 50 to 100% | –
3 | CCC(OC)c1ccc(C)cc1N1C(=O)CS/C1=N\C(=O)Nc1ccc(-c2ncn(-c3ccc(OC(F)(F)F)cc3)n2)cc1F (stereo not drawn) [Compound J421] | 50 to 100% | 50 to 100% | – | – | –
4 | Cc1ccc(OCCC(F)(F)F)c(N2C(=O)CS/C2=N\C(=O)Nc2ccc(-c3ncn(-c4ccc(C(F)(F)F)cc4)n3)cc2F)c1 [Compound J64, (Z)-1-(2-Fluoro-4-(1-(4-(trifluoromethyl)phenyl)-1H-1,2,4-triazol-3-yl)phenyl)-3-(3-(5-methyl-2-(3,3,3-trifluoropropoxy)phenyl)-4-oxothiazolidin-2-ylidene)urea] | – | – | 50 to 100% | 50 to 100% | –
5 | Cc1ccc(COCCF)c(N2C(=O)CS/C2=N\C(=O)Nc2ccc(-c3ncn(-c4ccc(S(F)(F)(F)(F)F)cc4)n3)cc2F)c1 [Compound J552] | 50 to 100% | 50 to 100% | – | – | –
6 | Cc1ccc(CC(F)(F)F)c(N2C(=O)CS/C2=N\C(=O)NCCc2ccc(-c3ncn(-c4ccc(OC(F)(F)F)cc4)n3)cc2)c1 [Compound H12] | – | – | 50 to 100% | 50 to 100% | –
7 | COCc1ccc(N(C)C)cc1N1C(=O)CS/C1=N\C(=O)Nc1ccc(-n2cnc(-c3ccc(OC(F)(F)F)cc3)n2)cc1C [Compound J444, (Z)-1-(3-(5-(Dimethylamino)-2-(methoxymethyl)phenyl)-4-oxothiazolidin-2-ylidene)-3-(2-methyl-4-(3-(4-(trifluoromethoxy)phenyl)-1H-1,2,4-triazol-1-yl)phenyl)urea] | 50 to 100% | 50 to 100% | – | – | –
8 | Cc1ccc(C(C)C)c(N2C(=O)CS/C2=N\C(=O)Nc2ccc(-c3ncn(-c4ccc(OC(F)(F)F)cn4)n3)cc2C(F)(F)F)c1 [Compound J260, (Z)-1-(3-(2-Isopropyl-5-methylphenyl)-4-oxothiazolidin-2-ylidene)-3-(4-(1-(5-(trifluoromethoxy)pyridin-2-yl)-1H-1,2,4-triazol-3-yl)-2-(trifluoromethyl)phenyl)urea] | – | – | 50 to 100% | 50 to 100% | –
9 | Cc1ccc(OCCC(F)(F)F)c(N2C(=O)CS/C2=N\C(=O)Nc2ccc(-c3cn(-c4ccc(C(F)(F)F)cc4)cn3)cc2C)c1 [Compound J527, (Z)-1-(3-(5-Methyl-2-(3,3,3-trifluoropropoxy)phenyl)-4-oxothiazolidin-2-ylidene)-3-(2-methyl-4-(1-(4-(trifluoromethyl)phenyl)-1H-imidazol-4-yl)phenyl)urea] | 50 to 100% | 50 to 100% | – | – | –
10 | COc1ccc(COCC(F)(F)F)c(N2C(=O)CS/C2=N\C(=O)Nc2ccc(-c3ncn(-c4ccc(C(F)(F)F)cc4)n3)cc2F)c1 [Compound J581] | – | – | – | – | CL rating [1]: A (50-100); BAW rating [2]: A (50-100)
11 | COC(C)c1ccc(C)cc1N1C(=O)CS/C1=N\C(=O)Nc1ccc(-c2cn(-c3ccc(OC(F)(F)F)cc3)cn2)cc1 (stereo not drawn) [Compound J463, (Z)-1-(3-(2-(1-Methoxyethyl)-5-methylphenyl)-4-oxothiazolidin-2-ylidene)-3-(4-(1-(4-(trifluoromethoxy)phenyl)-1H-imidazol-4-yl)phenyl)urea] | 50 to 100% | 50 to 100% | – | – | –
12 | CC(=O)c1cc(-c2ncn(-c3ccc(OC(F)(F)F)cc3)n2)ccc1NC(=O)/N=C1\SCC(=O)N1c1cc(C)ccc1OCCC(F)(F)F [Compound J399, (Z)-1-(2-Acetyl-4-(1-(4-(trifluoromethoxy)phenyl)-1H-1,2,4-triazol-3-yl)phenyl)-3-(3-(5-methyl-2-(3,3,3-trifluoropropoxy)phenyl)-4-oxothiazolidin-2-ylidene)urea] | 50 to 100% | 50 to 100% | – | – | –
13 | CC(C)c1ccc(N(C)C)cc1N1C(=O)CS/C1=N\C(=O)Nc1ccc(-c2ncn(-c3cccc(OC(F)(F)F)c3)n2)cc1 [Compound J329, (Z)-1-(3-(5-(Dimethylamino)-2-isopropylphenyl)-4-oxothiazolidin-2-ylidene)-3-(4-(1-(3-(trifluoromethoxy)phenyl)-1H-1,2,4-triazol-3-yl)phenyl)urea] | – | – | 50 to 100% | 50 to 100% | –
14 | Cc1ccc(COCC(F)(F)Cl)c(N2C(=O)CS/C2=N\C(=O)Nc2ccc(-c3ncn(-c4ccc(OC(F)(F)F)cc4)n3)cc2F)c1 [Compound J437] | – | – | – | – | CL rating [1]: A (50-100); BAW rating [2]: A (50-100)
15 | Cc1ccc(COCC(F)F)c(N2C(=O)CS/C2=N\C(=O)Nc2ccc(-c3nnn(-c4ccc(OC(F)(F)F)cc4)n3)cc2)c1 [Compound J768, (Z)-1-(3-(2-((2,2-Difluoroethoxy)methyl)-5-methylphenyl)-4-oxothiazolidin-2-ylidene)-3-(4-(2-(4-(trifluoromethoxy)phenyl)-2H-tetrazol-5-yl)phenyl)urea] | 50 to 100% | 50 to 100% | – | – | –
16 | CC(C)c1cc(-c2ncn(-c3ccc(OC(F)(F)F)cc3)n2)ccc1NC(=O)/N=C1\SCC(=O)N1c1cc(N(C)C)ccc1OCCC(F)(F)F [Compound J111, (Z)-1-(3-(5-(Dimethylamino)-2-(3,3,3-trifluoropropoxy)phenyl)-4-oxothiazolidin-2-ylidene)-3-(2-isopropyl-4-(1-(4-(trifluoromethoxy)phenyl)-1H-1,2,4-triazol-3-yl)phenyl)urea] | – | – | 50 to 100% | 50 to 100% | –
17 | Cc1ccc(OCCC(F)(F)F)c(N2C(=O)CS/C2=N\C(=O)Nc2ccc(-c3ncn(-c4ccc(OC(F)(F)F)cn4)n3)cc2F)c1 [Compound J257, (Z)-1-(2-Fluoro-4-(1-(5-(trifluoromethoxy)pyridin-2-yl)-1H-1,2,4-triazol-3-yl)phenyl)-3-(3-(5-methyl-2-(3,3,3-trifluoropropoxy)phenyl)-4-oxothiazolidin-2-ylidene)urea] | – | – | 50 to 100% | 50 to 100% | –
18 | Cc1ccc(OCCC(F)(F)F)c(N2C(=O)CS/C2=N\C(=O)Nc2ccc(-c3ncn(-c4ccc(SC(F)(F)F)cc4)n3)cc2)c1 [Compound J387, (Z)-1-(3-(5-Methyl-2-(3,3,3-trifluoropropoxy)phenyl)-4-oxothiazolidin-2-ylidene)-3-(4-(1-(4-((trifluoromethyl)thio)phenyl)-1H-1,2,4-triazol-3-yl)phenyl)urea] | 50 to 100% | 50 to 100% | – | – | –
19 | CC(C)c1cc(F)c(N(C)C)cc1N1C(=O)CS/C1=N\C(=O)Nc1ccc(-c2ncn(-c3ccc(C(F)F)cn3)n2)cc1F [Compound J351] | – | – | – | – | CL (Biological Results, rating) ([1]; Cabbage Looper (Trichoplusia ni), C = Not Tested): A (50-100); BAW (Biological Results, rating) ([2]; Beet Armyworm (Spodoptera exigua), C = Not Tested): A (50-100)
20 | Cc1ccc(C(C)C)c(N2C(=O)CS/C2=N\C(=O)Nc2ccc(-c3ncn(-c4cccc(C(F)(F)F)c4)n3)cc2)c1 [Compound J323, (Z)-1-(3-(2-isopropyl-5-methylphenyl)-4-oxothiazolidin-2-ylidene)-3-(4-(1-(3-(trifluoromethyl)phenyl)-1H-1,2,4-triazol-3-yl)phenyl)urea] | – | – | 50 to 100% | 50 to 100% | –
21 | COc1cc(-c2ncn(-c3ccc(OC(F)(F)F)cc3)n2)ccc1NC(=O)/N=C1\SCC(=O)N1c1cc(N(C)C)ccc1C(C)C [Compound J89, (Z)-1-(3-(5-(Dimethylamino)-2-isopropylphenyl)-4-oxothiazolidin-2-ylidene)-3-(2-methoxy-4-(1-(4-(trifluoromethoxy)phenyl)-1H-1,2,4-triazol-3-yl)phenyl)urea] | – | – | 50 to 100% | 50 to 100% | –
22 | Cc1ccc(COCC(F)(F)F)c(N2C(=O)CS/C2=N\C(=O)Nc2ccc(-c3ncn(-c4ccc(SC(F)(F)F)cc4)n3)cc2)c1 [Compound J367, (Z)-1-(3-(5-Methyl-2-((2,2,2-trifluoroethoxy)methyl)phenyl)-4-oxothiazolidin-2-ylidene)-3-(4-(1-(4-((trifluoromethyl)thio)phenyl)-1H-1,2,4-triazol-3-yl)phenyl)urea] | 50 to 100% | 50 to 100% | – | – | –
23 | CC(C)c1ccc(N(C)C)cc1N1C(=O)CS/C1=N\C(=O)Nc1ccc(-c2ncn(-c3ccc(OC(F)(F)F)cn3)n2)cc1Cl [Compound J253, (Z)-1-(2-Chloro-4-(1-(5-(trifluoromethoxy)pyridin-2-yl)-1H-1,2,4-triazol-3-yl)phenyl)-3-(3-(5-(dimethylamino)-2-isopropylphenyl)-4-oxothiazolidin-2-ylidene)urea] | – | – | 50 to 100% | 50 to 100% | –
24 | Cc1ccc(Cc2cccc(C(F)(F)F)c2)c(N2C(=O)CS/C2=N\C(=O)Nc2ccc(-c3ncn(-c4ccc(OC(F)(F)F)cc4)n3)cc2C)c1 [Compound J440, (Z)-1-(3-(5-Methyl-2-(3-(trifluoromethyl)benzyl)phenyl)-4-oxothiazolidin-2-ylidene)-3-(2-methyl-4-(1-(4-(trifluoromethoxy)phenyl)-1H-1,2,4-triazol-3-yl)phenyl)urea] | 0 to 50% | 50 to 100% | – | – | –
